For one experiment, the target named is human Smo (Homo sapiens (Human), UniProt Q99835). Nature of the experiment: Smo radioligand competition binding assay. The settings on record: for inhibition at 0.05 µM: 0.05 μM test compound, read-out: Smo % inh. @ 0.05 μM. Summed up:
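Membranes from HEK293 cells expressing surface human Smo 181-781 (40 μg protein/well) incubated 2 h at room temperature with test compound and tritiated Smo antagonist (3 nM), pH 7.5 Tris buffer; filtration and scintillation counting. Non-specific binding defined with 30 μM cold antagonist; IC50 from four-parameter sigmoidal fit.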
(Displacement assays read how much labelled ligand stays bound in the presence of the test substance.)

For another experiment, the system named is Gli-Luc/MEF cells. The experiment is described as follows: Gli-Luc/MEF assay. The settings on record: Mus musculus, MEF; Shh-stimulated luciferase, 48 hours. It counts as cell-based, mouse. Summed up: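 Shh-stimulated luciferase readout (Bright-Glo) after 48 h, 37 °C, 5% CO2, used to derive IC50 of inhibition. Gli-Luc transgenic mouse MEFs received test compounds at final […] in 3-fold dilutions, with recombinant mouse Shh added immediately at final 2 μg/mL.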

pIC50: −log10 of the molar value.

What is called pIC50 is the negative decadic logarithm of the IC50, by convention in mol/L.

human Smo, sequence (Q99835 181-787): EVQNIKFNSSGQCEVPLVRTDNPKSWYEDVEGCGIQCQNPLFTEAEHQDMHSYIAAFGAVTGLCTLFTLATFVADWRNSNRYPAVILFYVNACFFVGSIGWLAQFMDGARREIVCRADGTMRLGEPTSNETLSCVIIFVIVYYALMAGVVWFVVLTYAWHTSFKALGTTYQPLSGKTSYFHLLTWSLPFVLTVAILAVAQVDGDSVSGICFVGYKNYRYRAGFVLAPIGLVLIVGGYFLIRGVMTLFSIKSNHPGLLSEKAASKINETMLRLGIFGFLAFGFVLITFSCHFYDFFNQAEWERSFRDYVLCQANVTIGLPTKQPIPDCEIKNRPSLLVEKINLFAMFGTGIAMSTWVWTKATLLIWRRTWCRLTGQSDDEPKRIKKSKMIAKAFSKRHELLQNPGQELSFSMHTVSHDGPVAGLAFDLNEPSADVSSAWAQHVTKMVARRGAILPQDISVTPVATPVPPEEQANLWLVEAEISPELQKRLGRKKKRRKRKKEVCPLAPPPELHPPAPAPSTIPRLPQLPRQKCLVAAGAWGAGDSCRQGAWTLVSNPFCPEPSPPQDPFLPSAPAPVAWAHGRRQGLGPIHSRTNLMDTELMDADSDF

On to `Cc1cccnc1-c1cc(N2CCC(C(=O)N3CCCC(O)C3CO)CC2)ncc1Cl` (centres unmarked) [Example A-86, 1-{[1-(5′-chloro-3-methyl-2,4′-bipyridin-2′-yl)piperidin-4-yl]carbonyl}-2-(hydroxymethyl)piperidin-3-ol], for which, on human Smo, the pIC50 is 6.95 and the inhibition at 0.05 µM came to 81.5%. The compound also showed a pIC50 with Gli-Luc/MEF cells of 6.94.
In the same order, the values of `Cc1cccnc1-c1cc(N2CCC3(CC2)CNC(=O)O3)ncc1Cl` [Example A-21, 8-(5′-chloro-3-methyl-2,4′-bipyridin-2′-yl)-1-oxa-3,8-diazaspiro[4.5]decan-2-one] are 6.53, 65.9% and 6.94.
`Cc1cccnc1-c1cc(N2CCN(S(C)(=O)=O)CC2)ncc1Cl` [Example A-22, 5′-chloro-3-methyl-2′-[4-(methylsulfonyl)piperazin-1-yl]-2,4′-bipyridine]: the pIC50 on human Smo was 6.96; in the experiment with Gli-Luc/MEF cells, 7.38. Besides, the inhibition at 0.05 µM at human Smo amounted to 81.5%.
For the compound `Cc1cnc(-c2cc(N3CCC(NC(=O)CCS(C)(=O)=O)CC3)ncc2Cl)c(C)c1` [Example A-122, N-[1-(5′-chloro-3,5-dimethyl-2,4′-bipyridin-2′-yl)piperidin-4-yl]-3-(methylsulfonyl)propanamide], the negative-log IC50 (pIC50) was 7.83 on human Smo and 8.26 in the experiment with Gli-Luc/MEF cells. In addition, the inhibition at 0.05 µM at human Smo is 103%.
Consider `Cc1cc(F)cnc1-c1cc(N2CCN(C(=O)CCS(C)(=O)=O)CC2)ncc1Cl` [Example A-151, 1-[4-(5′-chloro-5-fluoro-3-methyl-2,4′-bipyridin-2′-yl)piperazin-1-yl]-3-(methylsulfonyl)propan-1-one], for which the inhibition at 0.05 µM at human Smo came to 101%. In the experiment on Gli-Luc/MEF cells, the negative logarithm of the IC50 (pIC50) was 8.06.
Consider `Cc1cccnc1-c1cc(N2CCC(C(=O)N[C@@H]3CCCC[C@H]3O)CC2)ncc1Cl` [Example A-81, 1-(5′-chloro-3-methyl-2,4′-bipyridin-2′-yl)-N-[(1R,2R)-2-hydroxycyclohexyl]piperidine-4-carboxamide], for which the pIC50 was 7.49 on human Smo and 7.80 with Gli-Luc/MEF cells. Moreover, the inhibition at 0.05 µM on human Smo stood at 97.9%.
In the same order, the values of `Cc1cc(Cl)cnc1-c1cc(N2CCC(NS(C)(=O)=O)CC2)ncc1Cl` [Example A-109, N-[1-(5,5′-dichloro-3-methyl-2,4′-bipyridin-2′-yl)piperidin-4-yl]methanesulfonamide] are 7.69, 8.17 and 97.4%.
For `Cc1cccnc1-c1cc(N2CCC(C(=O)NC3(c4ccccn4)CC3)CC2)ncc1Cl` [Example A-55, 1-(5′-chloro-3-methyl-2,4′-bipyridin-2′-yl)-N-(1-pyridin-2-ylcyclopropyl)piperidine-4-carboxamide], the negative logarithm of the IC50 (pIC50) on human Smo was 7.20; in the experiment on Gli-Luc/MEF cells, 7.60. Besides, on human Smo, the inhibition at 0.05 µM amounted to 83.7%.
With `Cc1cccnc1-c1cc(N2CCC(C(=O)N3CCCC[C@H]3CO)CC2)ncc1Cl` [Example A-85, [(2S)-1-{[1-(5′-chloro-3-methyl-2,4′-bipyridin-2′-yl)piperidin-4-yl]carbonyl}piperidin-2-yl]methanol], the pIC50 on human Smo was 7.37; in the experiment on Gli-Luc/MEF cells it was 6.94. The inhibition at 0.05 µM on human Smo was found to be 92.7%.
Take `Cc1cccnc1-c1cc(N2CCC3(CC2)CN(C)C(=O)O3)ncc1Cl` [Example A-20, 8-(5′-chloro-3-methyl-2,4′-bipyridin-2′-yl)-3-methyl-1-oxa-3,8-diazaspiro[4.5]decan-2-one]: on human Smo, the pIC50 was 6.39 and the inhibition at 0.05 µM turned out to be 64.6%. In the experiment with Gli-Luc/MEF cells, this compound gave a pIC50 of 6.96.
As to `Cc1cccnc1-c1cc(N2CCC(CS(C)(=O)=O)CC2)ncc1Cl` [Example A-51, 5′-chloro-3-methyl-2′-{4-[(methylsulfonyl)methyl]piperidin-1-yl}-2,4′-bipyridine], the pIC50 at human Smo is 7.45; in the experiment on Gli-Luc/MEF cells it was 7.63. Also, the inhibition at 0.05 µM on human Smo is 87.8%.
For `CS(=O)(=O)NC1CCN(c2ncc(Cl)c(-c3ccccn3)c2F)CC1` [Example A-138, N-(1-(5′-chloro-3′-fluoro-2,4′-bipyridin-2′-yl)piperidin-4-yl)methanesulfonamide], in that order: 7.07, 7.53 and 80.5%.
For `Cc1cccnc1-c1cc(N2CCC(OCC(C)C)CC2)ncc1Cl` [Example A-38, 5′-chloro-2′-(4-isobutoxypiperidin-1-yl)-3-methyl-2,4′-bipyridine], in that order: 6.79, 7.22 and 78.5%.
With `COC(=O)N1CCN(c2cc(-c3ncccc3C)c(Cl)cn2)CC1` [Example A-24, methyl 4-(5′-chloro-3-methyl-2,4′-bipyridin-2′-yl)piperazine-1-carboxylate], at human Smo, the negative-log IC50 (pIC50) was 6.61 and the inhibition at 0.05 µM is 69.3%. This compound also had a pIC50 in the experiment on Gli-Luc/MEF cells of 6.90.
For `Cc1cccnc1-c1cc(N2CCC(C(=O)NC3CCOC4(CCN(C)CC4)C3)CC2)ncc1Cl` (centres unmarked) [Example A-84, 1-(5′-chloro-3-methyl-2,4′-bipyridin-2′-yl)-N-(9-methyl-1-oxa-9-azaspiro[5.5]undec-4-yl)piperidine-4-carboxamide], in that order: 6.55, 71.5% and 7.04.
For `Cc1cccnc1-c1cc(N2CCC(NC(=O)CN(C)C)CC2)ncc1Cl` [Example A-31, N-(1-(5′-chloro-3-methyl-[2,4′-bipyridin]-2′-yl)piperidin-4-yl)-2-(dimethylamino)acetamide], in that order: 7.36, 89.2% and 7.68.
In the same order, the values of `Cc1cnc(-c2nc(N3CCC(NC(=O)CO)CC3)ccc2Cl)c(C)c1` [Example A-140, N-[1-(3-chloro-3′,5′-dimethyl-2,2′-bipyridin-6-yl)piperidin-4-yl]-2-hydroxyacetamide] are 7.32, 92% and 7.71.
Consider `CCS(=O)(=O)NC1CCN(c2ccc(Cl)c(-c3ccccn3)n2)CC1` [Example A-132, N-[1-(3-chloro-2,2′-bipyridin-6-yl)piperidin-4-yl]ethanesulfonamide], for which, on human Smo, the pIC50 was 7.42 and the inhibition at 0.05 µM is 92%. In the experiment with Gli-Luc/MEF cells, this compound gave a pIC50 of 7.47.
Take `COCC(=O)N1CCN(c2cc(-c3ncccc3C)c(Cl)cn2)CC1` [Example A-28, 5′-chloro-2′-[4-(methoxyacetyl)piperazin-1-yl]-3-methyl-2,4′-bipyridine]: at human Smo, the pIC50 was 6.67 and the inhibition at 0.05 µM came to 68.9%. In addition, in the experiment with Gli-Luc/MEF cells, the pIC50 was 6.84.
Take `Cc1cnc(-c2cc(N3CCN(C(=O)CC(C)(C)O)CC3)ncc2Cl)c(C)c1` [Example A-103, 4-[4-(5′-chloro-3,5-dimethyl-2,4′-bipyridin-2′-yl)piperazin-1-yl]-2-methyl-4-oxobutan-2-ol]: at human Smo, the negative-log IC50 (pIC50) is 7.71 and the inhibition at 0.05 µM came to 98%. For the same compound, in the experiment on Gli-Luc/MEF cells, the negative logarithm of the IC50 (pIC50) was 7.93.
For `COCCC(=O)N1CCN(c2cc(-c3ncccc3C)c(Cl)cn2)CC1` [Example A-29, 5′-chloro-2′-[4-(3-methoxypropanoyl)piperazin-1-yl]-3-methyl-2,4′-bipyridine], at human Smo, the negative logarithm of the IC50 (pIC50) was 7.28 and the inhibition at 0.05 µM was found to be 89.3%. The compound further showed a negative-log IC50 (pIC50) in the experiment with Gli-Luc/MEF cells of 7.37.
In the same order, the values of `CS(=O)(=O)CC1CCN(c2ccc(Cl)c(-c3ccccn3)n2)CC1` [Example A-53, 3-chloro-6-{4-[(methylsulfonyl)methyl]piperidin-1-yl}-2,2′-bipyridine] are 7.42, 93.3% and 7.56.
For `COCCS(=O)(=O)N1CCN(c2cc(-c3ncc(C)cc3C)c(Cl)cn2)CC1` [Example A-110, 5′-chloro-2′-{4-[(2-methoxyethyl)sulfonyl]piperazin-1-yl}-3,5-dimethyl-2,4′-bipyridine], the figures for the negative logarithm of the IC50 (pIC50) at human Smo and with Gli-Luc/MEF cells were 7.53 and 7.91, respectively. Moreover, on human Smo, the inhibition at 0.05 µM was determined as 94.4%.
In the same order, the values of `Cc1cccnc1-c1cc(N2CCC(C(=O)NCC3CN(CC4CC4)C(=O)CO3)CC2)ncc1Cl` (centres unmarked) [Example A-74, 1-(5′-chloro-3-methyl-2,4′-bipyridin-2′-yl)-N-{[4-(cyclopropylmethyl)-5-oxomorpholin-2-yl]methyl}piperidine-4-carboxamide] are 7.59, 7.64 and 97.8%.
Consider `COC(=O)N1CCN(c2cc(-c3ncc(C)cc3C)c(Cl)cn2)CC1` [Example A-101, methyl 4-(5′-chloro-3,5-dimethyl-2,4′-bipyridin-2′-yl)piperazine-1-carboxylate], for which, at human Smo, the pIC50 is 7.14 and the inhibition at 0.05 µM is 89%. In the experiment with Gli-Luc/MEF cells, this compound gave a pIC50 of 7.52.
On to `Cc1cccnc1-c1cc(N2CCN(C(=O)C(C)(C)C)CC2)ncc1Cl` [Example A-43, 5′-chloro-2′-[4-(2,2-dimethylpropanoyl)piperazin-1-yl]-3-methyl-2,4′-bipyridine], for which, on human Smo, the pIC50 was 7.59 and the inhibition at 0.05 µM is 95%. In addition, the pIC50 in the experiment on Gli-Luc/MEF cells is 7.72.
For `Cc1cccnc1-c1cc(N2CCN(C(=O)CCS(C)(=O)=O)CC2)ncc1Cl` [Example A-93, 5′-chloro-3-methyl-2′-{4-[3-(methylsulfonyl)propanoyl]piperazin-1-yl}-2,4′-bipyridine], at human Smo, the negative-log IC50 (pIC50) is 8.01 and the inhibition at 0.05 µM was determined as 97.5%. In the experiment on Gli-Luc/MEF cells, this compound gave a pIC50 of 7.91.
For `Cc1cccnc1-c1cc(N2CCC(C(=O)NC3(CO)CCCC3)CC2)ncc1Cl` [Example A-76, 1-(5′-chloro-3-methyl-2,4′-bipyridin-2′-yl)-N-[1-(hydroxymethyl)cyclopentyl]piperidine-4-carboxamide], in that order: 7.59, 91.6% and 7.74.

For the origin of these results see US9056865B2, “Pyridine-2-derivatives as smoothened receptor modulators” (Pfizer Inc., priority 2010, dated 2015).
